Reference: the supplement of paper PMC8671470

Columns and labels:
Conditions in all cases: 72 h
NOMO-1 [1] = system: NOMO-1
Summary of the method: (§1)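 Each of fifteen myeloid leukaemia cell lines was seeded in RPMI 1640 at a density titrated to its linear growth range. The cells were incubated for 72 h at 37 °C and 5% CO2 with compounds at five tenfold doses from 1 to 10,000 nM, in duplicate. After ATP luminescence was normalised to vehicle and to a positive control at 10 µM, four-parameter log-logistic curves were fitted. These curves gave the IC50.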

K-562 [2] = system: K-562
Summary of the method: as §1

MV4-11 [3] = system: MV4-11
Summary of the method: as §1

KU-812 [4] = system: KU-812
Summary of the method: as §1

Mono-Mac-6 [5] = system: Mono-Mac-6
Summary of the method: as §1

KG-1 = experiment: cell viability (% survival relative to DMSO control, bortezomib = 0%); higher = less cytotoxic
Summary of the method: (§2)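 After 72 h at 37 °C with 5% CO2, cell viability in 384-well plates was measured by CellTiter-Glo luminescence. The plates held compounds pre-printed at 1, 10, 100, 1000 or 10000 nM in duplicate, and cells from 10 AML and 5 CML lines seeded at densities titrated to linear growth. Percent survival is the duplicate mean, normalised to vehicle as 100% and a 10 µM positive control as 0%.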

NOMO-1 [6] = experiment: as above
Summary of the method: as §2

BV-173 = experiment: as above
Summary of the method: as §2

MOLM-13 = experiment: as above
Summary of the method: as §2

K-562 [7] = experiment: as above
Summary of the method: as §2

KCL-22 = experiment: as above
Summary of the method: as §2

ML-2 = experiment: as above
Summary of the method: as §2

LAMA-84 = experiment: as above
Summary of the method: as §2

MV4-11 [8] = experiment: as above
Summary of the method: as §2

SHI-1 = experiment: as above
Summary of the method: as §2

KU-812 [9] = experiment: as above
Summary of the method: as §2

Mono-Mac-6 [10] = experiment: as above
Summary of the method: as §2

HL-60 [11] = experiment: as above
Summary of the method: as §2

HEL = experiment: as above
Summary of the method: as §2

THP-1 = experiment: as above
Summary of the method: as §2

HL-60 [12] = experiment: cell viability (% survival relative to DMSO control); higher = less cytotoxic
Summary of the method: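 In 384-well plates, the full library was rescreened in duplicate on HL-60 cells in RPMI 1640 with 10% FBS, at 1–10,000 nM in five tenfold concentrations, for 72 h at 37 °C, 5% CO2. Each run also held DMSO or 100 nM of one of three metabolic inhibitors. Viability was measured by CellTiter-Glo and normalised to DMSO wells and to wells with proteasome inhibitor, present at 10 μM. Any area under the curve comes from four-parameter log-logistic fitting with drc and PharmacoGx.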

OC[C@H]1NC[C@H](O)[C@@H](O)[C@@H]1O [Duvoglustat]
Conditions | IC50 (cell viability) [µM]
K-562 [2] | > 10
KU-812 [4] | > 10
MV4-11 [3] | > 10
Mono-Mac-6 [5] | > 10
NOMO-1 [1] | > 10

cell viability [%]
Conditions | 1 nM | 10 nM | 100 nM | 1000 nM | 10000 nM
BV-173 | 96.5 | 85.3 | 104 | 75.6 | 96.5
HEL | 94.5 | 122 | 99.8 | 94.4 | 103
HL-60 [11] | 90.1 | 180 | 113 | 81 | 125
K-562 [7] | 90.3 | 94.7 | 100 | 88.2 | 105
KCL-22 | 90.5 | 120 | 107 | 87 | 104
KG-1 | 96.4 | 111 | 108 | 87.3 | 101
KU-812 [9] | 84.9 | 99.8 | 92.5 | 94.5 | 103
LAMA-84 | 84.3 | 98 | 106 | 88.3 | 106
ML-2 | 95.4 | 121 | 117 | 84.9 | 106
MOLM-13 | 79.3 | 127 | 104 | 83.3 | 102
MV4-11 [8] | 93.3 | 108 | 92.8 | 92.6 | 113
Mono-Mac-6 [10] | 102 | 107 | 105 | 78.9 | 104
NOMO-1 [6] | 95.8 | 101 | 99.5 | 83.4 | 105
SHI-1 | 103 | 121 | 109 | 88 | 108
THP-1 | 96.6 | 92.3 | 109 | 84.6 | 101

cell viability [%], HL-60 [12]
Conditions | 0.001 µM | 0.01 µM | 0.1 µM | 1 µM | 10 µM
co-treatment: AZD3965 100 nM | 96.9 | 99.7 | 96.3 | 96.5 | 94
co-treatment: DMSO vehicle | 99.3 | 95.3 | 102 | 102 | 101.5
co-treatment: GSK2194069 100 nM | 97.4 | 92.82 | 107 | 105 | 95.8
co-treatment: pictilisib 100 nM | 97.9 | 108 | 108 | 109 | 106

O=C(NCCN1CCC(n2c(O)nc3ccccc32)CC1)c1cc2cc(F)ccc2[nH]1 [FIPI]
Conditions | IC50 (cell viability) [µM]
K-562 [2] | 6.19
KU-812 [4] | > 10
MV4-11 [3] | > 10
Mono-Mac-6 [5] | 8.61
NOMO-1 [1] | > 10

cell viability [%]
Conditions | 1 nM | 10 nM | 100 nM | 1000 nM | 10000 nM
BV-173 | 96.9 | 101 | 99.9 | 99.3 | 58.9
HEL | 99.1 | 99.8 | 101 | 104 | 82.5
HL-60 [11] | 105 | 103 | 112 | 97.7 | 92.2
K-562 [7] | 99.1 | 106 | 108 | 101 | 27.3
KCL-22 | 100 | 98 | 91.1 | 94.9 | 67.7
KG-1 | 101 | 92.4 | 103 | 91.2 | 65.1
KU-812 [9] | 104 | 92.9 | 105 | 106 | 66.2
LAMA-84 | 99.3 | 103 | 103 | 98.6 | 70.5
ML-2 | 96.3 | 98.6 | 107 | 110 | 75.8
MOLM-13 | 79.6 | 104 | 98.9 | 95.4 | 69
MV4-11 [8] | 91.3 | 88.1 | 100 | 94.6 | 53.2
Mono-Mac-6 [10] | 104 | 107 | 106 | 70.6 | 64.5
NOMO-1 [6] | 96.7 | 95.4 | 110 | 102 | 95.3
SHI-1 | 103 | 104 | 97.5 | 97.9 | 85
THP-1 | 95.8 | 93.9 | 101 | 105 | 96.3

cell viability [%], HL-60 [12]
Conditions | 0.001 µM | 0.01 µM | 0.1 µM | 1 µM | 10 µM
co-treatment: AZD3965 100 nM | 104 | 99.7 | 103 | 102 | 107
co-treatment: DMSO vehicle | 101.7 | 100.3 | 104 | 108 | 107
co-treatment: GSK2194069 100 nM | 98.6 | 99.3 | 102 | 106 | 91.2
co-treatment: pictilisib 100 nM | 106 | 105.7 | 110 | 110 | 95.5

C[C@]12C=CC(=O)C=C1CC[C@@H]1[C@@H]2[C@@H](O)C[C@@]2(C)[C@H]1CC[C@]2(O)C(=O)CO [Prednisolone]
Conditions | IC50 (cell viability) [µM]
K-562 [2] | > 10
KU-812 [4] | > 10
MV4-11 [3] | > 10
Mono-Mac-6 [5] | > 10
NOMO-1 [1] | > 10

cell viability [%]
Conditions | 1 nM | 10 nM | 100 nM | 1000 nM | 10000 nM
BV-173 | 82.5 | 104 | 18.8 | 1.67 | 2.49
HEL | 105 | 114 | 109 | 109 | 105
HL-60 [11] | 93.2 | 93.5 | 104 | 114 | 116
K-562 [7] | 112 | 88.7 | 104 | 99 | 92.6
KCL-22 | 94.2 | 111 | 82.5 | 45.4 | 43
KG-1 | 115 | 105 | 87.7 | 91.3 | 71.4
KU-812 [9] | 87.2 | 104 | 99.8 | 124 | 112
LAMA-84 | 94.1 | 106 | 92.6 | 88.5 | 81.5
ML-2 | 91.5 | 104 | 115 | 114 | 104
MOLM-13 | 94.3 | 96 | 118 | 106 | 109
MV4-11 [8] | 95.2 | 110 | 143 | 142 | 107
Mono-Mac-6 [10] | 93.7 | 90.3 | 151 | 157 | 140
NOMO-1 [6] | 93.3 | 103 | 109 | 88.7 | 87.3
SHI-1 | 97.7 | 95.7 | 97.9 | 67.6 | 71.9
THP-1 | 92 | 96.4 | 106 | 108 | 102

cell viability [%], HL-60 [12]
Conditions | 0.001 µM | 0.01 µM | 0.1 µM | 1 µM | 10 µM
co-treatment: AZD3965 100 nM | 82.4 | 96.7 | 103 | 103 | 96.2
co-treatment: DMSO vehicle | 95.9 | 104 | 100 | 103 | 101.5
co-treatment: GSK2194069 100 nM | 94.8 | 101 | 98.4 | 101 | 100
co-treatment: pictilisib 100 nM | 90 | 92.8 | 99.1 | 105.5 | 95.8
